This is an account of results in patent US20100048575A1, “NOVEL TETRACYCLIC INHIBITORS OF CYSTEINE PROTEASES, THE PHARMACEUTICAL COMPOSITIONS THEREOF AND THEIR THERAPEUTIC APPLICATIONS” (priority 2006, published 2010).

The structures appear in SMILES notation.

For this assay, the target named is T1, USP7 (Homo sapiens, UniProt Q93009).
T1 construct: His tag (from vector pFastBac-HT) (N); made in house; host or cells: insect cells (Sf9 or High Five), baculovirus
T1 sequence (Q93009 whole entry): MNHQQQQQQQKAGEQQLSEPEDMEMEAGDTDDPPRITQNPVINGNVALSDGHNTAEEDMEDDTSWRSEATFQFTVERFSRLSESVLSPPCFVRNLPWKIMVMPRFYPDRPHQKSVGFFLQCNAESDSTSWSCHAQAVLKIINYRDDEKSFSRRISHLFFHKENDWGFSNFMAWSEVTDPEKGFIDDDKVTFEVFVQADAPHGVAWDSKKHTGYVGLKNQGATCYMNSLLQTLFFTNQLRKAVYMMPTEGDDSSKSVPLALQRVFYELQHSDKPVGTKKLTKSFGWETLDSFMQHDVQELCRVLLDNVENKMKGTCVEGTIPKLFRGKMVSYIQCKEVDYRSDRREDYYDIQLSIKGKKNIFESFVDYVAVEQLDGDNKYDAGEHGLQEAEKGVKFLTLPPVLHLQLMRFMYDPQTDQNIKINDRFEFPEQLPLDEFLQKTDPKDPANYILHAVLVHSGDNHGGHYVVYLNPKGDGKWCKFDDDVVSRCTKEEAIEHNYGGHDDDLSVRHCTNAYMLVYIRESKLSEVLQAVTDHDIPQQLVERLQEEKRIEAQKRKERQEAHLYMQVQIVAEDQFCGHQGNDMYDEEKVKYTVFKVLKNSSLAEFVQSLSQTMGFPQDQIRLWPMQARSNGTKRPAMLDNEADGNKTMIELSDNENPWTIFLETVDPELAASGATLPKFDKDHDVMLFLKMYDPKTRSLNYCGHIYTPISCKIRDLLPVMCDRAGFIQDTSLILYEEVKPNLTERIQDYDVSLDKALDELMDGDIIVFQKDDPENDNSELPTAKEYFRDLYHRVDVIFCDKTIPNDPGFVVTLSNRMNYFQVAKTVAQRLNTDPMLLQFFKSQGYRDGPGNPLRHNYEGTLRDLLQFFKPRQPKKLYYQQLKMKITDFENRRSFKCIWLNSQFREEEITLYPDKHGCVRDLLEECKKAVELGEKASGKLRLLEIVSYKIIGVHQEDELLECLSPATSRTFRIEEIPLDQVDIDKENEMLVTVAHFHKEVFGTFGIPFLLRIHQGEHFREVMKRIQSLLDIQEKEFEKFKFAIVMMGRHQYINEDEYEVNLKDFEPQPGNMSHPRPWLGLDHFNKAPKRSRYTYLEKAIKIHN
Kind of assay: USP7 activity assay (Ub-AMC). Type of assay: biochemical. To be noted: 400 nM Ub-AMC, 152 pM enzyme, 30 min pre-incubation, 60 min at 37° C., sigmoidal fit; read-out: USP7 (inhibition of cysteine protease activity). The source says:
The cDNA encoding USP7 was obtained by PCR amplification from placenta mRNA. USP7 cDNA was subcloned by PCR into a baculovirus expression vector (pFastBac-HT; Invitrogen). A cDNA encoding a mutated USP7 was generated by mutagenic PCR. The corresponding protein encodes a cysteine to alanine substitution at residue 223. The sequences were ascertained by sequencing of the entire open reading frame. Bacmids encoding […] were generated following DH10bac transposition. The corresponding bacmids were transfected into insect cells (Sf9). Viruses were recovered from culture supernatant and amplified twice. Insect cells (Sf9 or High Five; Invitrogen) were infected for 72 hours. Total cell lysates were harvested and lyzed in lysis buffer-(Tris HCl 50 mM pH7.6; 0.75% NP40; 500 mM NaCl; 10% glycerol; 1 mM DTT; 10 mM imidazole; Protease Inhibitor Cocktail; AEBSF 20 μg.ml^−1; Aprotinin 10 μg.ml^−1). Proteins were affinity purified on metal affinity resins (Talon Metal affinity resin; BD Biosciences). Bound materials were extensively washed in wash buffer (50 mM Sodium Phosphate pH7.0; 300 mM NaCl; 10 mM imidazole; 0.5% Triton X-100; 10% glycerol) and eluted from the resin in 250 mM imidazole-containing wash buffer. Proteins were dialyzed in dialysis buffer (Tris HCl pH 7.6 20 mM; NaCl 200 mM; DTT 1 mM; EDTA 1 mM; 10% Glycerol). Proteins purifications were analyzed on 4-12% NuPAGE (Invitrogen).
USP7 was diluted in USP buffer (50 mM Tris HCl; 0.5 mM EDTA; 5 mM DTT; 0.01% Triton X-100; Bovine Serum Albumin 0.05 mg.ml^−1 pH7.6). Compounds stocks (100 mM) were stored at −20° C. in DMSO. Compounds were tested at the following final concentrations: 100 μM; 33.3 μM; 11.1 μM; 3.7 μM; 1.23 μM; 412 nM; 137 nM; 45.7 nM; 15.2 nM; 5 nM.
Reactions were performed as duplicates in Black LJL 96 well plates (HE microplates; Molecular Devices; 20 μl final reaction volume). The substrate concentration for USP7 was 400 nM Ub-AMC (Chem. Biol., 2003, 10, p. 837-846) (Boston Biochem). The concentrations of the enzyme (USP7) in specificity assays was 152 pM. The concentrations were determined in order to perform specificity assays under initial velocities at fixed substrate concentration. Compounds were pre-incubated with enzymes for 30 minutes at 25° C. Reactions were initiated by addition of substrate to the plates containing the enzymes (+/−compounds) diluted in assay buffer. Reactions were incubated for 60 minutes at 37° C. Reactions were stopped by adding acetic acid (100 mM final). Readings were performed on a Pherastar Fluorescent Reader (BMG). λ Emission 380 nm; λ Excitation=460 nm. Data (mean values +/−standard deviation) were analyzed as % of control (no compound) and plotted as percentage versus the Log of the compound concentration using GraphPad (Prism). Data were fitted to a sigmoidal model (variable slope).
Consider `ON=C1c2ccccc2-c2nn3nnnc3nc21` (mixture of isomers) [compound 7, 1,2,3,3a,4,10-hexaaza-cyclopenta[b]fluoren-9-one oxime], for which the IC50 is 0.657 µM.

`CON=C1c2ccccc2-c2nn3c(C)nnc3nc21` (mixture of isomers) [5a, 3-Methyl-1,2,3a,4,10-pentaaza-cyclopenta[b]fluoren-9-one O-methyl-oxime]: the IC50 came to 4 µM.

`C=CCON=C1c2ccccc2-c2nn3nnnc3nc21` (mixture of isomers) [compound 6, 1,2,3,3a,4,10-hexaaza-cyclopenta[b]fluoren-9-one O-allyl-oxime]: the IC50 is 0.305 µM.

As for `C=CCON=C1c2ccccc2-c2nn3c(CC)nnc3nc21` (mixture of isomers) [10f, 3-Ethyl-1,2,3a,4,10-pentaaza-cyclopenta[b]fluoren-9-one O-allyl-oxime], the IC50 was found to be 3.25 µM.

As for `CCc1nnc2nc3c(nn12)-c1ccccc1C3=NOCc1ccccc1` (mixture of isomers) [10h, 3-Ethyl-1,2,3a,4,10-pentaaza-cyclopenta[b]fluoren-9-one O-benzyl-oxime], the IC50 came to 7.28 µM.

On to `COCCON=C1c2ccccc2-c2nn3nnnc3nc21` (mixture of isomers) [8b, 1,2,3,3a, 4,10-Hexaaza-cyclopenta[b]fluoren-9-one O-(2-methoxy-ethyl)-oxime], for which the IC50 amounted to 0.47 µM.

`CCON=C1c2ccccc2-c2nn3c(CC)nnc3nc21` (mixture of isomers) [10d, 3-Ethyl-1,2,3a,4,10-pentaaza-cyclopenta[b]fluoren-9-one O-ethyl-oxime]: the IC50 is 3.11 µM.

With `C=CCON=C1c2ccccc2-c2nn3c(CCCC)nnc3nc21` (mixture of isomers) [5d, 3-Butyl-1,2,3a,4,10-pentaaza-cyclopenta[b]fluoren-9-one O-allyl-oxime], the IC50 was found to be 5.35 µM.

Turning to `C=CCON=C1c2ccccc2-c2nn3c(C)nnc3nc21` (mixture of isomers) [5b, 3-Methyl-1,2,3a,4,10-pentaaza-cyclopenta[b]fluoren-9-one O-allyl-oxime], the IC50 is 3.14 µM.

As for `CCc1nnc2nc3c(nn12)-c1ccccc1C3=NOC` (mixture of isomers) [10b, 3-Ethyl-1,2,3a,4,10-pentaaza-cyclopenta[b]fluoren-9-one O-methyl-oxime], the IC50 came out at 4.84 µM.

As for `c1ccc(OCCCON=C2c3ccccc3-c3nn4nnnc4nc32)cc1` (mixture of isomers) [8c, 1,2,3,3a,4,10-Hexaaza-cyclopenta[b]fluoren-9-one O-(3-phenoxy-propyl)-oxime], the IC50 came out at 1.78 µM.
